# Experimental data as given in US9999221B2, “Herbicide combination containing pelargonic acid and defined ALS inhibitors” (BAYER CROPSCIENCE AKTIENGESELLSCHAFT, priority 2013, dated 2018).
# Key:
# Assay in all cases: Post-emergence test, % damage
# Assay type in all cases: in vivo
# Conditions in all cases: after 48 days
# Poa annua = tested on: Poa annua
# From the text: (§1) After 48 days, the degree of damage to the plants is rated in % damage in comparison to the development of the untreated control.
# Trifolium repens = tested on: Trifolium repens
# From the text: as §1
# Taraxacum officinale = tested on: Taraxacum officinale
# From the text: as §1
# Plantago major = tested on: Plantago major
# From the text: as §1
# Festuca ovina = tested on: Festuca ovina
# From the text: as §1
# Chenopodium album = tested on: Chenopodium album
# From the text: as §1
# [1] = Iodosulfuron-methyl 1 g of active compound/ha
# [2] = Iodosulfuron-methyl 1.25 g of active compound/ha
# [3] = Iodosulfuron-methyl 2.5 g of active compound/ha
# [4] = Iodosulfuron-methyl 10 g of active compound/ha
# [5] = Pelargonic acid 10000 g of active compound/ha
# [6] = Pelargonic acid 20000 g of active compound/ha
# [7] = Pelargonic acid 30000 g of active compound/ha
compound,measurement,setting,value
"4-iodo-2-[(4-methoxy-6-methyl-1,3,5-triazin-2-yl)carbamoylsulfamoyl]benzoate, sodium salt [Iodosulfuron-methyl]",herbicidal effect [%],Poa annua; [1],0%
same,herbicidal effect [%],Poa annua; [2],0%
same,herbicidal effect [%],Poa annua; [3],0%
same,herbicidal effect [%],Poa annua; [4],0%
same,herbicidal effect [%],Trifolium repens; [1],18.3%
same,herbicidal effect [%],Trifolium repens; [2],32%
same,herbicidal effect [%],Trifolium repens; [3],45%
same,herbicidal effect [%],Trifolium repens; [4],80%
same,herbicidal effect [%],Taraxacum officinale; [1],18.3%
same,herbicidal effect [%],Taraxacum officinale; [2],18%
same,herbicidal effect [%],Taraxacum officinale; [3],42%
same,herbicidal effect [%],Taraxacum officinale; [4],85%
same,herbicidal effect [%],Plantago major; [1],0%
same,herbicidal effect [%],Plantago major; [2],3%
same,herbicidal effect [%],Plantago major; [3],30%
same,herbicidal effect [%],Plantago major; [4],53.3%
same,herbicidal effect [%],Festuca ovina; [1],0%
same,herbicidal effect [%],Festuca ovina; [2],0%
same,herbicidal effect [%],Festuca ovina; [3],0%
same,herbicidal effect [%],Festuca ovina; [4],6.7%
same,herbicidal effect [%],Chenopodium album; [1],0%
same,herbicidal effect [%],Chenopodium album; [2],0%
same,herbicidal effect [%],Chenopodium album; [3],10%
same,herbicidal effect [%],Chenopodium album; [4],40%
"CCCCCCCCC(=O)O [Pelargonic acid, nonanoic acid]",herbicidal effect [%],Poa annua; [5],0%
same,herbicidal effect [%],Poa annua; [6],0%
same,herbicidal effect [%],Poa annua; [7],0%
same,herbicidal effect [%],Trifolium repens; [5],0%
same,herbicidal effect [%],Trifolium repens; [6],0%
same,herbicidal effect [%],Trifolium repens; [7],3.3%
same,herbicidal effect [%],Taraxacum officinale; [5],6.7%
same,herbicidal effect [%],Taraxacum officinale; [6],7%
same,herbicidal effect [%],Taraxacum officinale; [7],20%
same,herbicidal effect [%],Plantago major; [5],0%
same,herbicidal effect [%],Plantago major; [6],0%
same,herbicidal effect [%],Plantago major; [7],13.3%
same,herbicidal effect [%],Festuca ovina; [5],0%
same,herbicidal effect [%],Festuca ovina; [6],0%
same,herbicidal effect [%],Festuca ovina; [7],6.7%
same,herbicidal effect [%],Chenopodium album; [5],0%
same,herbicidal effect [%],Chenopodium album; [6],10%
same,herbicidal effect [%],Chenopodium album; [7],20%
